The values below come from patent US9845302B2, “Anticancer compounds and process for the preparation thereof” (Council of Scientific and Industrial Research, priority 2013, dated 2017).

One experiment has as its system HL60-HUVEC cell adhesion. The experiment in a line: HL60-HUVEC cell adhesion inhibition, 8 point dose dependent assay (TNF-α stimulated, Calcein AM fluorometric). As to conditions: Homo sapiens; HUVEC dosed 2 hours with compound, 100 ng/mL TNF-α 4 hours, HL60 co-culture 30 mins. In kind it is cell-based. On the procedure:
Determination of Cell Adhesion Inhibition
An 8 point dose dependent assay was carried out to assess the IC50's of the test compounds.
10,000 HUVEC cells/well (passage number. 8) was seeded into a 96 well black clear bottom plate and cells were cultured for 4 days at 37° C. After the cell culture, HUVEC's were dosed with test compound and reference compound (peribysin E) at a top concentration of 100 μM (1:3 step down dilution-8 concentrations) and cells were cultured for 2 hours at 37° C. HUVEC's were treated with/without 100 ng/mL of TNF-α further cultured for 4 hours at 37° C. 100,000 HL60 cells/well (passage number. 16) was loaded with Calcein AM dye and co-cultured with HUVECs, and cells were cultured for 30 mins at 37° C. HL60-HUVEC cell adhesion was detected by a fluorometric method using a BMG Polarstar. (IC50=inhibition concentration at 50%). HL60-HUVEC Cell Adhesion-IC50 Assessment of Compound
In the case of `C=C1CO[C@@H](OC)[C@]12C[C@@H]1C=CC[C@@H](C)[C@]1(C)[C@H]2O` (racemic) [Compound 9, (2R,2′R,3′R,3a′S,4′R,7a′R)-2-methoxy-3a′,4′-dimethyl-4-methylene 1′,3′,3a′,4,4′,5,5′,7a′-octahydro-2H-spiro[furan-3,2′-inden]-3′-ol], the concentration for half-maximal inhibition (IC50) (usually the concentration needed to halve the response being measured) was 18.7 µM. In the case of `C=C1CO[C@@H](OC)[C@]12C[C@@H]1CCC[C@@H](C)[C@]1(C)[C@H]2O` (racemic) [Compound 20, (1′R,2R,2′R,3a′S,7′R,7a′S)-2-methoxy-7′,7a′-dimethyl-4-methylenedecahydro-2H-spiro[furan-3,2′-inden]-1′-ol], the IC50 was 11 µM. In the case of `C=C1CO[C@@H](OC)[C@]12C[C@@H]1[C@@H](O)CC[C@@H](C)[C@]1(C)[C@H]2O` (racemic) [Compound 11c, (1′R,2R,2′R,3a′S,4′S,7′R,7a′S)-2-methoxy-7′,7a′-dimethyl-4-methylenedecahydro-2H-spiro[furan-3,2′-indene]-1′,4′-diol], the half-inhibitory concentration (IC50) was 13.8 µM.

Take `C=C1CO[C@@H](OC)[C@]12C[C@@H]1[C@@H]3O[C@@H]3C[C@@H](C)[C@]1(C)[C@H]2O` (racemic) [Compound 10, (1a′R,2R,3R,3′R,3a′S,4′R,6a′S,6b′S)-2-methoxy-3′,3a′-dimethyl-4-methylenedecahydro-2H-spiro[furan-3,5′-indeno[4,5-b]oxiren]-4′-ol]: the 50% inhibitory concentration (IC50) is 15.8 µM. Same read-out and setting: next, `C=C1CO[C@@H](OC)[C@]12C[C@@H]1C[C@H](O)C[C@@H](C)[C@]1(C)[C@H]2O` (racemic) [Compound 11a, (1′R,2R,2′R,3a′R,5′R,7′R,7a′S)-2-methoxy-7′,7a′-dimethyl-4-methylene decahydro-2H-spiro[furan-3,2′-indene]-1′,5′-diol]: 10.4 µM. On to `C=C1CO[C@@H](OC)[C@]12C[C@@H]1C[C@@H](O)C[C@@H](C)[C@]1(C)[C@H]2O` (racemic) [Peribysin E, (1′R,2R,2′R,3a′R,5′S,7′R,7a′S)-2-methoxy-7′,7a′-dimethyl-4-methylenedecahydro-2H-spiro[furan-3,2′-indene]-1′,5′-diol, reference compound], for which the IC50 was 6.9 to 12.2 µM.

Consider `C=C1CO[C@@H](OC)[C@]12C[C@@H]1[C@H](O)CC[C@@H](C)[C@]1(C)[C@H]2O` (racemic) [Compound 11b, (1′R,2R,2′R,3a′S,4′R,7′R,7a′S)-2-methoxy-7′,7a′-dimethyl-4-methylenedecahydro-2H-spiro[furan-3,2′-indene]-1′,4′-diol], for which the 50% inhibitory concentration (IC50) is 4.28 µM.

Another experiment deals with adhesion of leukemia HL-60 cells to human-umbilical-vein endothelial cells (HUVEC).
Assay: not given
As to conditions: HL-60 cells to HUVEC; background statement; cited from earlier work.
Consider `C=C1CO[C@@H](OC)[C@]12C[C@@H]1C[C@@H](O)C[C@@H](C)[C@]1(C)[C@H]2O` [(−)-peribysin E], for which the “cell adhesion inhibitory activity” value is on record as “more potent activity than the gold standard herbimycin”. `C=C1CO[C@@H](OC)[C@]12C[C@@H]1C[C@@H](O)C[C@@H](C)[C@]1(C)[C@H]2O` (racemic) [Peribysin E, (1′R,2R,2′R,3a′R,5′S,7′R,7a′S)-2-methoxy-7′,7a′-dimethyl-4-methylenedecahydro-2H-spiro[furan-3,2′-indene]-1′,5′-diol, reference compound]: the “cell adhesion inhibitory activity” value is recorded as “inhibit adhesion of leukemia HL-60 cells to human-umbilical-vein endothelial cells (HUVEC)”.
